According to patent US9623028B2, “Methods of treating a cancer using substituted pyrrolopyrimidine compounds, compositions thereof” (Signal Pharmaceuticals, LLC, priority 2014, dated 2017):
Where two headings read alike, the source gives them in different places.

Tested on: breast cancer cell lines
Test: cells
Conditions: for IC50: read-out: Growth Inhibition IC50; for GI50: read-out: Growth inhibition GI50
[1] = Homo sapiens, MDA-MB-175-VII, 96 h

CNC(=O)c1ccc(Nc2nc(OC(C)C)c3c(-c4ccc5nc(C)oc5c4)c[nH]c3n2)c(OC)c1 [Compound 125, 4-((4-isopropoxy-5-(2-methylbenzo[d]oxazol-6-yl)-7H-pyrrolo[2,3-d]pyrimidin-2-yl)amino)-3-methoxy-N-methylbenzamide]
IC50 (96 h): 419 nM
GI50 (96 h): 116 nM
IC50 (EFM-192A, 96 h): 1280 nM
GI50 (EFM-192A, 96 h): 294 nM
IC50 (HCC202, 96 h): 190 nM
GI50 (HCC202, 96 h): 28 nM
IC50 (HCC1500, 96 h): 2280 nM
GI50 (HCC1500, 96 h): 103 nM
IC50 (Homo sapiens, AU565, 96 h): 21 nM
GI50 (Homo sapiens, AU565, 96 h): 16 nM
IC50 (Homo sapiens, BT-20, 96 h): 44 nM
GI50 (Homo sapiens, BT-20, 96 h): 28 nM
IC50 (Homo sapiens, BT-474, 96 h): 595 nM
GI50 (Homo sapiens, BT-474, 96 h): 10000 nM
IC50 (Homo sapiens, BT-483, 96 h): 3400 nM
IC50 (Homo sapiens, BT-549, 96 h): 66 nM
GI50 (Homo sapiens, BT-549, 96 h): 34 nM
IC50 (Homo sapiens, CAL-51, 96 h): 10 nM
GI50 (Homo sapiens, CAL-51, 96 h): 9 nM
IC50 (Homo sapiens, CAL-85-1, 96 h): 93 nM
GI50 (Homo sapiens, CAL-85-1, 96 h): 29 nM
IC50 (Homo sapiens, CAL-120, 96 h): 272 nM
GI50 (Homo sapiens, CAL-120, 96 h): 10000 nM
IC50 (Homo sapiens, CAL-148, 96 h): 168 nM
GI50 (Homo sapiens, CAL-148, 96 h): 47 nM
IC50 (Homo sapiens, CAMA-1, 96 h): 763 nM
GI50 (Homo sapiens, CAMA-1, 96 h): 590 nM
IC50 (Homo sapiens, DU-4475, 96 h): 246 nM
GI50 (Homo sapiens, DU-4475, 96 h): 38 nM
IC50 (Homo sapiens, EFM-19, 96 h): 181 nM
GI50 (Homo sapiens, EFM-19, 96 h): 35 nM
IC50 (Homo sapiens, EVSA-T, 96 h): 206 nM
GI50 (Homo sapiens, EVSA-T, 96 h): 6000 nM
IC50 (Homo sapiens, HCC38, 96 h): 12 nM
GI50 (Homo sapiens, HCC38, 96 h): 9 nM
IC50 (Homo sapiens, HCC70, 96 h): 268 nM
GI50 (Homo sapiens, HCC70, 96 h): 47 nM
IC50 (Homo sapiens, HCC1143, 96 h): 481 nM
GI50 (Homo sapiens, HCC1143, 96 h): 215 nM
IC50 (Homo sapiens, HCC1187, 96 h): 31 nM
GI50 (Homo sapiens, HCC1187, 96 h): 27 nM
IC50 (Homo sapiens, HCC1419, 96 h): 2510 nM
GI50 (Homo sapiens, HCC1419, 96 h): 10000 nM
IC50 (Homo sapiens, HCC1428, 96 h): 472 nM
GI50 (Homo sapiens, HCC1428, 96 h): 326 nM
IC50 (Homo sapiens, HCC1569, 96 h): 408 nM
GI50 (Homo sapiens, HCC1569, 96 h): 88 nM
IC50 (Homo sapiens, HCC1806, 96 h): 11 nM
GI50 (Homo sapiens, HCC1806, 96 h): 8 nM
IC50 (Homo sapiens, HCC1937, 96 h): 311 nM
GI50 (Homo sapiens, HCC1937, 96 h): 6380 nM
IC50 (Homo sapiens, HCC1954, 96 h): 68 nM
GI50 (Homo sapiens, HCC1954, 96 h): 27 nM
IC50 (Homo sapiens, HDQ-P1, 96 h): 83 nM
GI50 (Homo sapiens, HDQ-P1, 96 h): 106 nM
IC50 (Homo sapiens, Hs-578T, 96 h): 41 nM
GI50 (Homo sapiens, Hs-578T, 96 h): 47 nM
IC50 (Homo sapiens, JIMT-1, 96 h): 165 nM
GI50 (Homo sapiens, JIMT-1, 96 h): 61 nM
IC50 (Homo sapiens, MCF7, 96 h): 12 nM
GI50 (Homo sapiens, MCF7, 96 h): 11 nM
IC50 (Homo sapiens, MDA-MB-134-VI, 96 h): 3170 nM
IC50 (Homo sapiens, MDA-MB-157, 96 h): 631 nM
GI50 (Homo sapiens, MDA-MB-157, 96 h): 114 nM
IC50 [1]: 2840 nM
GI50 [1]: 5280 nM
IC50 (Homo sapiens, MDA-MB-231, 96 h): 31 nM
GI50 (Homo sapiens, MDA-MB-231, 96 h): 19 nM
IC50 (Homo sapiens, MDA-MB-361, 96 h): 1470 nM
GI50 (Homo sapiens, MDA-MB-361, 96 h): 91 nM
IC50 (Homo sapiens, MDA-MB-415, 96 h): 5510 nM
GI50 (Homo sapiens, MDA-MB-415, 96 h): 10000 nM
IC50 (Homo sapiens, MDA-MB-436, 96 h): 510 nM
GI50 (Homo sapiens, MDA-MB-436, 96 h): 999 nM
IC50 (Homo sapiens, MDA-MB-453, 96 h): 668 nM
GI50 (Homo sapiens, MDA-MB-453, 96 h): 10000 nM
IC50 (Homo sapiens, MDA-MB-468, 96 h): 24 nM
GI50 (Homo sapiens, MDA-MB-468, 96 h): 23 nM
IC50 (Homo sapiens, MFM-223, 96 h): 172 nM
GI50 (Homo sapiens, MFM-223, 96 h): 43 nM
IC50 (Homo sapiens, SK-BR-3, 96 h): 272 nM
GI50 (Homo sapiens, SK-BR-3, 96 h): 81 nM
IC50 (Homo sapiens, T47D, 96 h): 336 nM
GI50 (Homo sapiens, T47D, 96 h): 81 nM
IC50 (Homo sapiens, UACC-812, 96 h): 296 nM
GI50 (Homo sapiens, UACC-812, 96 h): 319 nM
IC50 (Homo sapiens, UACC-893, 96 h): 787 nM
IC50 (Homo sapiens, ZR-75-1, 96 h): 3310 nM
GI50 (Homo sapiens, ZR-75-1, 96 h): 32 nM
IC50 (Homo sapiens, ZR-75-30, 96 h): 715 nM
IC50 (KPL-1, 96 h): 64 nM
GI50 (KPL-1, 96 h): 126 nM
IC50 (MT-3, 96 h): 8500 nM
GI50 (MT-3, 96 h): 5760 nM
